Source: US9588106B2, “Methods and compositions for measuring cell permeability” (The University of Chicago, priority 2012, dated 2017)

Test system: HPAEC monolayer
Assay: XPerT permeability visualization on biotinylated gelatin coated coverslips (FITC-avidin, VE-cadherin staining)
Format: cell-based, human
Conditions: thrombin 0.2 or 0.3 U/ml 15 min; forskolin 2 μM 30 min; 10× objective; FIG. 4A
Protocol: Human pulmonary artery endothelial cells (HPAEC) were obtained from Lonza (Allendale, N.J.) and cultured in cell growth medium (EGM-2, Lonza) containing 10% fetal bovine serum (FBS). Cell cultures were maintained at 37° C. in a humidified 5% CO2 incubator and used for experiments at passages 5-8. In experiments with agonist stimulation, 10% FBS growth medium was replaced with 2% FBS growth medium for 2 hours prior to experiment. Measurements of transendothelial electrical resistance across a confluent endothelial cell monolayer were performed using the electrical cell-substrate impedance sensing system ECIS-1600 (Applied Biophysics, Troy, N.Y.). Transient transfections with cMyc-tagged RhoA-V14 or Rho kinase-CAT (6-553) were performed using PolyJet transfection reagent (SignaGen, Rockville, Md.) according to the manufacturer's protocol. In brief, HPAEC were seeded on 35 mm diameter cell culture dishes with biotinylated gelatin-treated coverslips at a density of 5×10^5 cells per dish. After 24 hours cells were transfected with 1 μg of plasmid DNA per dish (ratio: 1 μg of DNA per 3 μl of PolyJet). Permeability visualization experiments were performed 24 hours after transfection.
Permeability visualization experiments were performed on 18×18 mm square Rinzle plastic coverslips. The coverslips, placed in 35 mm culture dishes, were coated with biotinylated gelatin as described above. […]

thrombin
FITC fluorescence at cell-cell junction areas, low magnification images: dramatic increase in FITC fluorescence in the intercellular gaps
